Data: ChEMBL document CHEMBL1137172, “A library synthesis of 4-hydroxy-3-methyl-6-phenylbenzofuran-2-carboxylic acid ethyl ester derivatives as anti-tumor agents” (Bioorg Med Chem Lett, 2004)
≈ marks a conversion by molar mass, not a printed value.

What was measured:
[1] = Effective concentration required for cytotoxicity against human VA-13 cell line; assay type: functional, cell-based
[2] = Partition coefficient (logP); assay type: physicochemical; settings: octanol/water
WI-38 = assay: Effective concentration required for cytotoxicity against normal human WI-38 cell line; assay type: functional, cell-based

**Q.** Which EC50 [1] does the source give for `COc1cccnc1C(=O)c1oc2cc(-c3cccc(F)c3)cc(O)c2c1C` here?
**A.** The EC50 was 0.027 µg/mL (≈ 0.0715 µM).

**Q.** What about the logP [2] of the same compound?
**A.** The logP was 2.3.

**Q.** With `CCOC(=O)c1oc2cc(-c3ccc(OCCc4ccccc4)cc3)cc(O)c2c1C` as the compound, how does the EC50 [1] read?
**A.** Its EC50 is > 4 µg/mL.

**Q.** With `CCOC(=O)c1oc2cc(-c3ccco3)cc(O)c2c1C` as the compound, how does the EC50 [1] read?
**A.** The EC50 was 0.18 µg/mL (≈ 0.629 µM).

**Q.** With `CCOC(=O)c1oc2cc(-c3ccc(OC)c(OC)c3)cc(O)c2c1C` as the compound, how does the EC50 [1] read?
**A.** The EC50 was > 4 µg/mL.

**Q.** Which EC50 [1] does the source give for `CCOC(=O)c1oc2cc(-c3ccccc3)cc(O)c2c1C` here?
**A.** Its EC50 is 0.04 µg/mL (≈ 0.135 µM).

**Q.** What about the EC50 (WI-38) of the same compound?
**A.** The EC50 was > 4 µg/mL.

**Q.** What about the logP [2] of the same compound?
**A.** The logP was 2.6.

**Q.** Which EC50 [1] does the source give for `CCOC(=O)c1oc2cc(-c3cccc(F)c3)cc(O)c2c1C` here?
**A.** The EC50 was 0.017 µg/mL (≈ 0.0541 µM).

**Q.** And the logP [2]?
**A.** The logP was 2.7.

**Q.** Which EC50 [1] does the source give for `CCOC(=O)c1oc2cc(-c3ccc(O)cc3)cc(O)c2c1C` here?
**A.** Its EC50 is 0.075 µg/mL (≈ 0.24 µM).

**Q.** With `CCOC(=O)c1oc2cc(-c3ccc(Br)cc3)cc(O)c2c1C` as the compound, how does the EC50 [1] read?
**A.** The EC50 was > 4 µg/mL.

**Q.** With `CCOC(=O)c1oc2cc(-c3ccc(OCc4ccccc4)cc3)cc(O)c2c1C` as the compound, how does the EC50 [1] read?
**A.** The EC50 was > 4 µg/mL.

**Q.** For `CCOC(=O)c1oc2cc(-c3ccccc3Br)cc(O)c2c1C`, which EC50 [1] is on record?
**A.** The EC50 was 0.39 µg/mL (≈ 1.04 µM).

**Q.** For `CCOC(=O)c1oc2cc(-c3ccccc3F)cc(O)c2c1C`, which EC50 [1] is on record?
**A.** The EC50 was 0.048 µg/mL (≈ 0.153 µM).

**Q.** Which EC50 [1] does the source give for `CCOC(=O)c1oc2cc(-c3cccc(OC)c3)cc(O)c2c1C` here?
**A.** Its EC50 is 0.08 µg/mL (≈ 0.245 µM).

**Q.** Which EC50 [1] does the source give for `CCOC(=O)c1oc2cc(-c3c(F)cccc3Cl)cc(O)c2c1C` here?
**A.** The EC50 was > 4 µg/mL.

**Q.** For `COc1cccnc1C(=O)c1oc2cc(-c3ccccc3)cc(O)c2c1C`, which EC50 [1] is on record?
**A.** Its EC50 is 0.028 µg/mL (≈ 0.0779 µM).

**Q.** What about the logP [2] of the same compound?
**A.** The logP was 2.2.

**Q.** Which EC50 [1] does the source give for `CCOC(=O)c1oc2cc(-c3cccc(C(F)(F)F)c3)cc(O)c2c1C` here?
**A.** Its EC50 is 0.7 µg/mL (≈ 1.92 µM).

**Q.** For `CCOC(=O)c1oc2cc(-c3ccc(F)cc3)cc(O)c2c1C`, which EC50 [1] is on record?
**A.** Its EC50 is 0.37 µg/mL (≈ 1.18 µM).

**Q.** With `CCOC(=O)c1oc2cc(-c3c(Cl)cccc3Cl)cc(O)c2c1C` as the compound, how does the EC50 [1] read?
**A.** The EC50 was > 4 µg/mL.

**Q.** For `CCOC(=O)c1oc2cc(-c3cccc(C)c3)cc(O)c2c1C`, which EC50 [1] is on record?
**A.** Its EC50 is 0.08 µg/mL (≈ 0.258 µM).

**Q.** Which EC50 [1] does the source give for `COc1ccc(C(=O)c2oc3cc(-c4ccccc4)cc(O)c3c2C)c(OC)c1` here?
**A.** The EC50 was 0.04 µg/mL (≈ 0.103 µM).

**Q.** And the logP [2]?
**A.** The logP was 2.6.

**Q.** For `CCOC(=O)c1oc2cc(-c3ccc(Cl)cc3)cc(O)c2c1C`, which EC50 [1] is on record?
**A.** Its EC50 is > 4 µg/mL.

**Q.** Which EC50 [1] does the source give for `CCOC(=O)c1oc2cc(-c3ccc(C)cc3)cc(O)c2c1C` here?
**A.** Its EC50 is > 4 µg/mL.

**Q.** For `CCOC(=O)c1oc2cc(-c3ccc(OCC)cc3)cc(O)c2c1C`, which EC50 [1] is on record?
**A.** Its EC50 is > 4 µg/mL.

**Q.** For `CCOC(=O)c1oc2cc(-c3ccc(OC)cc3)cc(O)c2c1C`, which EC50 [1] is on record?
**A.** Its EC50 is > 4 µg/mL.

**Q.** For `CCOC(=O)c1oc2cc(-c3ccc(Cl)cc3Cl)cc(O)c2c1C`, which EC50 [1] is on record?
**A.** Its EC50 is > 4 µg/mL.

**Q.** With `CCOC(=O)c1oc2cc(-c3cccc(Br)c3)cc(O)c2c1C` as the compound, how does the EC50 [1] read?
**A.** The EC50 was 0.085 µg/mL (≈ 0.227 µM).

**Q.** With `CCOC(=O)c1oc2cc(-c3cccc(O)c3)cc(O)c2c1C` as the compound, how does the EC50 [1] read?
**A.** The EC50 was 0.52 µg/mL (≈ 1.66 µM).

**Q.** With `CCOC(=O)c1oc2cc(-c3ccccc3OC)cc(O)c2c1C` as the compound, how does the EC50 [1] read?
**A.** Its EC50 is 0.38 µg/mL (≈ 1.16 µM).

**Q.** Which EC50 [1] does the source give for `CCOC(=O)c1oc2cc(-c3cccs3)cc(O)c2c1C` here?
**A.** Its EC50 is 0.16 µg/mL (≈ 0.529 µM).

**Q.** For `CCOC(=O)c1oc2cc(CC(C)(C)C)cc(O)c2c1C`, which EC50 [1] is on record?
**A.** Its EC50 is > 4 µg/mL.

**Q.** Which results are given for `COc1ccc(C(=O)c2oc3cc(-c4cccc(F)c4)cc(O)c3c2C)c(OC)c1`?
**A.** EC50 [1]: 0.03 µg/mL (≈ 0.0738 µM); logP [2]: 2.7

**Q.** With `CCOC(=O)c1oc2cc(-c3cccc(OCc4ccccc4)c3)cc(O)c2c1C` as the compound, how does the EC50 [1] read?
**A.** Its EC50 is 0.85 µg/mL (≈ 2.11 µM).

**Q.** For `COc1ccc(C(=O)c2[nH]c3cc(-c4cccc(F)c4)cc(O)c3c2C)c(OC)c1`, which EC50 [1] is on record?
**A.** Its EC50 is 0.12 µg/mL (≈ 0.296 µM).

**Q.** And the logP [2]?
**A.** The logP was 2.7.

**Q.** Which EC50 [1] does the source give for `CCOC(=O)c1[nH]c2cc(-c3ccccc3)cc(O)c2c1C` here?
**A.** Its EC50 is 0.47 µg/mL (≈ 1.59 µM).

**Q.** And the logP [2]?
**A.** The logP was 2.6.

**Q.** With `CCOC(=O)c1oc2cc(-c3ccccc3O)cc(O)c2c1C` as the compound, how does the EC50 [1] read?
**A.** Its EC50 is 0.31 µg/mL (≈ 0.993 µM).

**Q.** With `CCOC(=O)c1oc2cc(C3CCCCC3)cc(O)c2c1C` as the compound, how does the EC50 [1] read?
**A.** Its EC50 is > 4 µg/mL.

**Q.** Which EC50 [1] does the source give for `CCOC(=O)c1oc2cc(-c3ccccc3Cl)cc(O)c2c1C` here?
**A.** Its EC50 is 0.35 µg/mL (≈ 1.06 µM).

**Q.** With `CCOC(=O)c1oc2cc(-c3ccccc3OCc3ccccc3)cc(O)c2c1C` as the compound, how does the EC50 [1] read?
**A.** The EC50 was > 4 µg/mL.

**Q.** For `CCOC(=O)c1oc2cc(-c3cccc([N+](=O)[O-])c3)cc(O)c2c1C`, which EC50 [1] is on record?
**A.** The EC50 was 0.075 µg/mL (≈ 0.22 µM).

**Q.** Which EC50 [1] does the source give for `CCOC(=O)c1oc2cc(-c3cccc(N)c3)cc(O)c2c1C` here?
**A.** The EC50 was 0.09 µg/mL (≈ 0.289 µM).

**Q.** For `CCOC(=O)c1oc2cc(-c3cccc(Cl)c3)cc(O)c2c1C`, which EC50 [1] is on record?
**A.** The EC50 was 0.08 µg/mL (≈ 0.242 µM).
